Literature values in US9938200B2, “Methods for improving bud break” (priority 2010, dated 2018).

Tested on: vines
Conditions: use over time

For `N#CN` [hydrogen cyanamide], the “lowering of the fruitability of vines” value is listed as 20-30 % per year.
